Data as given in US9504676B2, “Molecules inhibiting a metabolic pathway involving the Syk protein tyrosine kinase and method for identifying said molecules” (CENTRE NATIONAL DE LA RECHERCHE SCIENTIFIQUE, priority 2008, dated 2016).

Assays:
Syk = molecular target: T1, Syk (Rattus norvegicus, UniProt Q64725); assay: Phosphorylation and FcεRI-induced kinase activity of Syk in RBL-2H3 cells; type: cell-based
T1 construct: endogenous in cells; host or cells: RBL-2H3

BALB/c mice [1] = assay: Antibody production after immunisation with TNP-KLH; type: in vivo; settings: oral administration of 150 mg/kg, day 12
Lyn = assay: FcεRI-dependent Lyn activation in RBL-2H3 cells; type: cell-based, rat
From the text: To examine the functional similarities with G4G11, the inventors explored the biological effects of C-13 on mast cell activation. […] Similarly to the intrabody G4G11, C-13 inhibited the phosphorylation and FcεRI-induced kinase activity of Btk (FIG. 2A) and the phosphorylation of PLC-γ1 and PLC-γ2, the two PLC-γ isoforms expressed in mast cells (FIGS. 2A, C). PTK Lyn phosphorylates both Syk and Btk giving rise to the complete activation thereof and the subsequent phosphorylation of PLC-γ^18.
(§1) • 1) Chemical products and antibodies. A chemical bank of 3000 molecules (a varied subset) was acquired from ChemBridge, Inc. (San Diego, Calif.). Stocks of solutions of small molecules were prepared at a rate of 10 mM in DMSO (dimethylsulphoxide), except for C-13 (methyl 2-{5-[(3-benzyl-4-oxo-2-thioxo-1,3-thiazolidin-5-ylidene)methyl]-2-furyl}benzoate, ChemBridge ID No. 6197026) prepared in DMF (dimethylformamide). […] The binding of G4G11 with Syk was assessed by adding the 9E10 monoclonal antibody conjugated with HRP detecting the amino acid sequence EQKLISEEDLN of human c-myc protein located at the C-terminal end of the scFv fragment. To generate Syk mutants, targeted mutagenesis was used on GST:Syk 6-242 protein and the binding of G4G11 with the mutants was assessed in the presence of 5 μM of C-13. • 3) Cells, culture conditions and functional tests. […]

BALB/c mice [2] = assay: Passive cutaneous anaphylaxis (PCA); type: in vivo; design: unit not given here; settings: local intradermal injection in the ear
Procedure: Finally, to extend these observations to mast cell functions in vivo, the inventors tested the effects of C-13 on passive systemic (PSA) and cutaneous anaphylaxis (PCA) induced in BALB/c mice by administering DNP-specific IgE molecules followed by intravenous stimulation with DNP-KLH hapten. […] The intensity of systemic anaphylaxis was determined by measuring both the drop in body temperature and the increase in vascular permeability following antigen administration.
as §1, with “(dimethylformamide). Unless specified otherwise, all the reagents were supplied by Sigma.” for “(dimethylformamide).”

LAT = assay: Phosphorylation of LAT (phospho-specific antibodies); type: cell-based, rat; settings: dose-dependent, RBL-2H3 cells
RBL-2H3 cells = assay: FACS analysis of IgE-dependent calcium flow; type: cell-based, rat; settings: mast cells
Procedure: FIG. 3. C-13 inhibits FcεRI-dependent calcium release and degranulation. A. FACS analysis of IgE-dependent calcium flow in RBL-2H3 cells. B. Release of β-hexosaminidase in RBL-2H3 cells sensitised with IgE/DNP. C. Release of β-hexosamlnidase and, D. titration of TNF-α in BMMCs cells sensitised with IgE/DNP; C-13: 3 μM. E. FACS analysis of FCεRI surface expression in RBL-2H3 cells. (0=0.25% DMF). Significant inhibition with C-13 versus DMF: **P<0.01 and *P<0.05.
Binding of Btk and Vav with SLP-76 is critical for regulating PLC-γ activity on the membrane, calcium mobilisation and granule exocytosis^27, 28.
as §1, with “Calif.).” for “Calif.). Stocks of solutions of small molecules were prepared at a rate of 10 mM in DMSO (dimethylsulphoxide), except for C-13 (methyl 2-{5-[(3-benzyl-4-oxo-2-thioxo-1,3-thiazolidin-5-ylidene)methyl]-2-furyl}benzoate, ChemBridge ID No. 6197026) prepared in DMF (dimethylformamide).”

T1 sequence (Q64725 whole entry): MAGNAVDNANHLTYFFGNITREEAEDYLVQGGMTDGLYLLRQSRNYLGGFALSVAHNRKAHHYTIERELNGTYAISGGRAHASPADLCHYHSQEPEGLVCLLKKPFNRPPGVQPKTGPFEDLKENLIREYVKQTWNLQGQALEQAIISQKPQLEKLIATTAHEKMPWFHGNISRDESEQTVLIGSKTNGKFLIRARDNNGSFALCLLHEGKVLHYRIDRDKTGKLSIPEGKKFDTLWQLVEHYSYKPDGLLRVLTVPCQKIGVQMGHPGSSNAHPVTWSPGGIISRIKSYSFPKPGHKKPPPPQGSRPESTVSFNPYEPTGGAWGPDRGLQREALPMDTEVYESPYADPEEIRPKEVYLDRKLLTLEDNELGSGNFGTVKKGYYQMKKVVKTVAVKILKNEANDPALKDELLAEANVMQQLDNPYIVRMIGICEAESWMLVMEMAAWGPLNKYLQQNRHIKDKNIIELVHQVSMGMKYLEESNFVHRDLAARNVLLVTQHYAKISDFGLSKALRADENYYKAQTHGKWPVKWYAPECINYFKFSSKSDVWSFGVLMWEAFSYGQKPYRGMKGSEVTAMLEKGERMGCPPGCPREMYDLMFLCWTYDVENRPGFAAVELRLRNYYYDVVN

For COC(=O)c1ccccc1-c1ccc(/C=C2/SC(=S)N(Cc3ccccc3)C2=O)o1 [Molecule C-13, methyl 2-{5-[(3-benzyl-4-oxo-2-thioxo-1,3-thiazolidin-5-ylidene)methyl]-2-furyl}benzoate], the “phosphorylation and FcεRI-induced kinase activity of Syk” value (Syk) was “did not affect”, the “antibody responses of mice immunised with a thymus-dependent antigen” value (BALB/c mice [1]) was “not affected” and the “FcεRI-dependent Lyn activation” value (Lyn) was “did not affect”. The “estimated IC50, inhibitory effect on PCA” value (BALB/c mice [2]) was about 25, the “phosphorylation of LAT” value (LAT) was “increases” and the “calcium flow in response to FcεRI binding” value (RBL-2H3 cells) was “reduced calcium flow range”.
